Experimental data from ChEMBL document CHEMBL1126955, “Substituted thiopyrano[2,3,4-c,d]indoles as potent, selective, and orally active inhibitors of 5-lipoxygenase. Synthesis and biological evaluation of L-691,816” (J Med Chem, 1993).

What was measured:
[1] = molecular target: T1, Polyunsaturated fatty acid 5-lipoxygenase (Rattus norvegicus, UniProt P12527); assay: In vitro test for inhibition of 5-lipoxygenase in cell-free preparations from rat PMN leukocytes
T1 sequence (P12527 whole entry): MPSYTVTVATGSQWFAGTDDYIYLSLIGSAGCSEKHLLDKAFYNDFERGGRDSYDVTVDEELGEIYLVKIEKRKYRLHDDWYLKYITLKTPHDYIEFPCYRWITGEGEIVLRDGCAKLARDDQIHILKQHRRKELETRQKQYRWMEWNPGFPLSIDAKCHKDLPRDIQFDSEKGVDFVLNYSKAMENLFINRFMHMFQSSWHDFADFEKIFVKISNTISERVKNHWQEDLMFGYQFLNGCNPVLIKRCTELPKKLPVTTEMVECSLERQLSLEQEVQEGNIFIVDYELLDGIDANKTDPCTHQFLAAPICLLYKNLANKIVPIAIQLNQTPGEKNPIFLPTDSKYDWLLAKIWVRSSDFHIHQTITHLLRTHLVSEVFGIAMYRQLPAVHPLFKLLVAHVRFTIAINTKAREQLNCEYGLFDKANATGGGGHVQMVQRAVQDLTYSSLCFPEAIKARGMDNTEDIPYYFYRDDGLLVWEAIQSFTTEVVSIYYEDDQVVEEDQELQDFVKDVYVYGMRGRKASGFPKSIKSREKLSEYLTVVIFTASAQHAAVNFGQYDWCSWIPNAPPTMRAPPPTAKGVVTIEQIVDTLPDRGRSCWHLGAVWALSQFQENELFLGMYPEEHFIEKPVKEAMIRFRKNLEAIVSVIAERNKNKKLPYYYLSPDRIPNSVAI

[2] = molecular target: T2, Arachidonate 5-lipoxygenase-activating protein (Homo sapiens, UniProt P20292); assay: Tested for inhibition of leukotriene biosynthesis by binding to 5-lipoxygenase activating protein
T2 sequence (P20292 whole entry): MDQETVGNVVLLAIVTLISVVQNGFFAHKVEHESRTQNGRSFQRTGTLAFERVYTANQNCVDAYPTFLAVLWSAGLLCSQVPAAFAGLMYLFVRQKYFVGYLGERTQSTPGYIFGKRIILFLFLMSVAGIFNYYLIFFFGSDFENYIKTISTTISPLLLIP

[3] = molecular target: T3, Polyunsaturated fatty acid 5-lipoxygenase (Homo sapiens, UniProt P09917); assay: In vitro inhibition of LTB4 biosynthesis in [Ca(2+)]-ionophore-activated human polymorphonuclear leukocytes; type: functional
T3 sequence (P09917 whole entry): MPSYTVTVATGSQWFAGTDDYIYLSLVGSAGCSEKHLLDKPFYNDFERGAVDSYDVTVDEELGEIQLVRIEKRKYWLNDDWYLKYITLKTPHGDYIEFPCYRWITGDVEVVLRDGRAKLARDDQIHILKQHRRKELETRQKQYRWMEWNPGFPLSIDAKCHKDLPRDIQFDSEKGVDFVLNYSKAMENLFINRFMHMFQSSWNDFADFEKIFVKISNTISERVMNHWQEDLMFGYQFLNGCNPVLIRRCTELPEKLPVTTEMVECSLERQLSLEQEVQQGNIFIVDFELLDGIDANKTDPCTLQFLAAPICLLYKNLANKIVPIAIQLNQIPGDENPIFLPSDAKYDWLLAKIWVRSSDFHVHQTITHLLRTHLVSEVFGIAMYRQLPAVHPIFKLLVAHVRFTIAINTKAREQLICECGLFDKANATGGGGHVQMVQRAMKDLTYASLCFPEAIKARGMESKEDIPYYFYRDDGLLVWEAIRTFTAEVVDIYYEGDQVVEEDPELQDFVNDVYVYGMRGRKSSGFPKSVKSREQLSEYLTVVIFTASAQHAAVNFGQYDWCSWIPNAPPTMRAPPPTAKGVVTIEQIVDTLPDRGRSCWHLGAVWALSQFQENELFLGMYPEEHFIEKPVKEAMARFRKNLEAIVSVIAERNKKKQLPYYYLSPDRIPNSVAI

[4] = Bioavailability in rat (dose 20 mg/kg p.o. in 1% methocel, and 5 mg/kg i.v. in PEG400); type: ADME, organism-based; conditions: in vivo, po
[5] = Maximum time taken for compound to reach peak concentration in rat plasma; type: ADME, organism-based
[6] = system: Rattus norvegicus; assay: Tested for percent inhibition of dyspnea duration in hyperreactive rat model after peroral administration of 5 mg/kg; type: functional; conditions: route oral
[7] = Peak concentration in rat plasma was determined; type: ADME, organism-based
[8] = organism: Homo sapiens; assay: Tested in vitro for the inhibition of LTB4 biosynthesis in [Ca(2+)]-ionophore-activated human polymorphonuclear leukocytes; (Result of a single titration); type: functional
[9] = organism: Homo sapiens; assay: Tested in vitro for the inhibition of LTB4 biosynthesis in [Ca(2+)]-ionophore-activated human polymorphonuclear leukocytes (Result of a single titration); type: functional
[10] = molecular target: T4, Polyunsaturated fatty acid 5-lipoxygenase (Rattus norvegicus) (UniProt P12527); assay: Tested in vitro for the inhibition of 5-lipoxygenase in cell-free preparations from rat PMN leukocytes; conditions: concentration not given here
T4 sequence (whole entry): T1 sequence (P12527 whole entry)

SMILES | IC50 [1] [nM] | IC50 [3] [nM] | further results
CC1Cc2c(OCc3cc4ccccc4cn3)ccc3c2c(c(CC(C)(C)C(=O)O)n3Cc2ccc(Cl)cc2)S1 (stereo not drawn) | 400 | 20 | IC50 [2]: 390 nM
C[C@@H]1Cc2c(OCc3ccc(-c4ccccc4)cn3)ccc3c2c(c(CC(C)(C)C(=O)O)n3Cc2ccc(Cl)cc2)[S+]1[O-] (stereo partly drawn) | 330 | 830 | –
CC1Cc2c(OCc3cccs3)ccc3c2c(c(CC(C)(C)C(=O)O)n3Cc2ccc(Cl)cc2)S1 (stereo not drawn) | 2000 | 28 | –
CC1Cc2c(OCc3ccc(-c4ccccc4)cn3)ccc3c2c(c(CC(C)(C)CC(=O)O)n3Cc2ccc(Cl)cc2)S1 (stereo not drawn) | 20 | 12 | bioavailability [4]: 27%; Tmax [5]: 2 h; inhibition in vivo at 5 mg/kg [6]: 54%; Cmax [7]: 4 µM
CC1Cc2c(OCc3ccc(-c4ccccc4)cn3)ccc3c2c(c(CC(C)(C)C(=O)O)n3Cc2ccc(S(C)(=O)=O)cc2)S1 (stereo not drawn) | 350 | 420 | –
CC1Cc2c(OCc3cc(-c4ccccc4)ccn3)ccc3c2c(c(CC(C)(C)C(=O)O)n3Cc2ccc(Cl)cc2)S1 (stereo not drawn) | 2000 | 80 | –
CC1Cc2c(OCc3ccc(C#N)cn3)ccc3c2c(c(CC(C)(C)C(=O)O)n3Cc2ccc(Cl)cc2)S1 (stereo not drawn) | 350 | 66 | –
CC1Cc2c(OCc3ccc(-c4ccccc4)cc3)ccc3c2c(c(CC(C)(C)C(=O)O)n3Cc2ccc(Cl)cc2)S1 (stereo not drawn) | 1000 | 165 | –
CC1Cc2c(OCc3ccc(-c4ccccc4)cn3)ccc3c2c(c(CC(C)(C)C(=O)O)n3Cc2ccc(Cl)cc2)S1(=O)=O (stereo not drawn) | 320 | 210 | –
CC1Cc2c(OCc3ccc4ccccc4n3)ccc3c2c(c(CC(C)(C)C(=O)O)n3Cc2ccc(Cl)cc2)S1 (stereo not drawn) | 600 | 3 | –
CC1Cc2c(OCc3ccc(-c4ccccc4)cn3)ccc3c2c(c(CC(C)(C)C(=O)O)n3C(=O)c2ccccc2)S1 (stereo not drawn) | 140 | – | IC50 [8]: 60 nM
CSc1c(CC(C)(C)C(=O)O)n(Cc2ccc(Cl)cc2)c2ccc(OCc3ccc(-c4ccccc4)cn3)cc12 | 600 | 170 | –
CC1Cc2c(OCc3ccc(-c4ccccc4)cn3)ccc3c2c(c(CC(=O)O)n3Cc2ccc(Cl)cc2)S1 (stereo not drawn) | 200 | 37 | –
CC1Cc2c(OCc3ccc(-c4ccccc4)cn3)ccc3c2c(c(CC(C)(C)C(=O)O)n3C)S1 (stereo not drawn) | – | 300 | –
CC1Cc2c(OCc3ccc(C(=O)O)cn3)ccc3c2c(c(CC(C)(C)C(=O)O)n3Cc2ccc(Cl)cc2)S1 (stereo not drawn) | > 2000 | – | IC50 [9]: > 2000 nM
CC1Cc2c(OCc3ccc(-c4ccccc4)cn3)ccc3c2c(c(CC(C)(C)C(=O)O)n3Cc2ccc(Cl)cc2)S1 (stereo not drawn) | – | 22 | –
CC1Cc2c(OCc3ccc(-c4ccccc4)cn3)ccc3c2c(c(CC(C)(C)C(=O)O)n3Cc2ccccn2)S1 (stereo not drawn) | 45 | 110 | –
COc1cccc(Cn2c(CC(C)(C)C(=O)O)c3c4c(c(OCc5ccc(-c6ccccc6)cn5)ccc42)CC(C)S3)c1 (stereo not drawn) | 40 | 28 | –
CC1Cc2c(OCc3ccc(-c4ccccc4)cn3)ccc3c2c(c(C(=O)O)n3Cc2ccc(Cl)cc2)S1 (stereo not drawn) | 2000 | 97 | –
CC(C)(Cc1c2c3c(c(OCc4ccc(-c5ccccc5)cn4)ccc3n1Cc1ccc(Cl)cc1)CCCS2)C(=O)O | – | 160 | inhibition [10]: 20%
CCCCn1c(CC(C)(C)C(=O)O)c2c3c(c(OCc4ccc(-c5ccccc5)cn4)ccc31)CC(C)S2 (stereo not drawn) | 130 | 95 | –
C[C@H]1Cc2c(OCc3ccc(-c4ccccc4)cn3)ccc3c2c(c(CC(C)(C)C(=O)O)n3Cc2ccc(Cl)cc2)[S+]1[O-] (stereo partly drawn) | 8000 | – | IC50 [8]: > 2000 nM

SMILES | IC50 [1] [nM] | IC50 [3] [nM] | further results
CC1Cc2c(OCc3ccc(-c4ccccc4)cn3)ccc3c2c(c(CCC(=O)O)n3Cc2ccc(Cl)cc2)S1 (stereo not drawn) | 140 | 38 | –
CC1Cc2c(OCc3ccc(-c4ccccc4)cn3)ccc3c2c(c(CCC(C)(C)C(=O)O)n3Cc2ccc(Cl)cc2)S1 (stereo not drawn) | 330 | 23 | –
CC1Cc2c(OCc3ccc(-c4ccccc4)cn3)ccc3c2c(c(CC(C)(C)CC(=O)NS(C)(=O)=O)n3Cc2ccc(Cl)cc2)S1 (stereo not drawn) | 36 | 11 | bioavailability [4]: 45%; Tmax [5]: 4 h; inhibition in vivo at 5 mg/kg [6]: 44%; Cmax [7]: 12 µM
CC1Cc2c(OCc3ccc(-c4ccccc4)cn3)ccc3c2c(c(CC(C)(C)CC(=O)N(C)O)n3Cc2ccc(Cl)cc2)S1 (stereo not drawn) | – | – | IC50 [8]: 500 nM
CCC1Cc2c(OCc3ccc(-c4ccccc4)cn3)ccc3c2c(c(CC(C)(C)C(=O)O)n3Cc2ccc(Cl)cc2)S1 (stereo not drawn) | 130 | 33 | –
CC1Cc2c(OCc3ccccn3)ccc3c2c(c(CC(C)(C)C(=O)O)n3Cc2ccc(Cl)cc2)S1 (stereo not drawn) | 630 | 35 | IC50 [2]: 110 nM
CC1Cc2c(OCc3cccc(-c4ccccc4)n3)ccc3c2c(c(CC(C)(C)C(=O)O)n3Cc2ccc(Cl)cc2)S1 (stereo not drawn) | 2500 | 27 | –
CC1Cc2c(OCc3ccc(-c4ccccc4)cn3)ccc3[nH]c(CC(C)(C)C(=O)O)c(c23)S1 (stereo not drawn) | – | 500 | inhibition [10]: 23%
CC1Cc2c(OCc3ccc(-c4ccccc4)cn3)ccc3c2c(c(CC(C)(C)CC(=O)NS(=O)(=O)C(F)(F)F)n3Cc2ccc(Cl)cc2)S1 (stereo not drawn) | 67 | 125 | –
CC1Cc2c(OCc3ccc(-c4ccccc4)cn3)ccc3c2c(c(CC(C)(C)C(=O)O)n3Cc2ccc(-c3ccccc3)cn2)S1 (stereo not drawn) | 30 | 16 | –
CC1Cc2c(OCc3ccc(-c4ccccc4)cn3)ccc3c2c(c(CC(C)(C)CCC(=O)O)n3Cc2ccc(Cl)cc2)S1 (stereo not drawn) | 130 | 19 | –
CC1(C)Cc2c(OCc3ccc(-c4ccccc4)cn3)ccc3c2c(c(CC(C)(C)C(=O)O)n3Cc2ccc(Cl)cc2)S1 | 3000 | 88 | –
CC1Cc2c(SCc3ccc(-c4ccccc4)cn3)ccc3c2c(c(CC(C)(C)Cc2nnn[nH]2)n3Cc2ccc(Cl)cc2)S1 (stereo not drawn) | 120 | 11 | –
COc1ccc(Cn2c(CC(C)(C)C(=O)O)c3c4c(c(OCc5ccc(-c6ccccc6)cn5)ccc42)CC(C)S3)cc1 (stereo not drawn) | 40 | 28 | –
CC1Cc2c(OCCc3ccc(-c4ccccc4)cn3)ccc3c2c(c(CC(C)(C)Cc2nnn[nH]2)n3Cc2ccc(Cl)cc2)S1 (stereo not drawn) | 1200 | 46 | –
CC(C)(Cc1c2c3c(c(OCc4ccc(-c5ccccc5)cn4)ccc3n1Cc1ccc(Cl)cc1)CCS2)C(=O)O | 200 | 100 | –
CC1Cc2c(OCc3ccc(-c4ccccc4)cn3)ccc3c2c(c(CC(C)(C)C(=O)O)n3CC2CCCCC2)S1 (stereo not drawn) | 35 | 33 | –
COc1ccc(COc2ccc3c4c2CC(C)Sc4c(CC(C)(C)C(=O)O)n3Cc2ccc(Cl)cc2)nc1 (stereo not drawn) | 400 | 12 | IC50 [2]: 40 nM
CC1Cc2c(OCc3ccc(-c4ccccc4)cn3)ccc3c2c(c(CC(C)(C)CC(N)=O)n3Cc2ccc(Cl)cc2)S1 (stereo not drawn) | – | – | IC50 [8]: 1500 nM
CCCCc1ccc(COc2ccc3c4c2CC(C)Sc4c(CC(C)(C)C(=O)O)n3Cc2ccc(Cl)cc2)nc1 (stereo not drawn) | 500 | 42 | –
CC1Cc2c(OCc3ccc(-c4ccccc4)cn3)ccc3c2c(c(CC(C)(C)C(=O)O)n3CCCc2ccccc2)S1 (stereo not drawn) | 35 | 23 | –
